Test system: men and women with overactive bladder
Assay: Phase 3 study of vibegron 75 mg vs placebo and tolterodine ER 4 mg, 12 weeks, efficacy (voiding and urine volume diary)
Assay type: in vivo, human
Details: for Patients with at Least 50% Reduction in Urgency Episodes, Adjusted n / Patients with at Least 50% Reduction in Urgency Episodes, Unadjusted (%) / Patients with at Least 50% Reduction in Urgency Episodes, Unadjusted n / Urgency 50% responders, Active - Placebo CMH Difference / Patients with at Least 50% Reduction in Urgency Episodes, Adjusted (%): Dry population; for Urgency Episodes, Week 12 CFB Mean: descriptive statistics; for Micturitions: LS Mean (95% CI): Table 32, week 12
Method: Enrollment of patients included individuals with OAB Wet (those with UUI, the involuntary loss of urine accompanied by urgency) and OAB Dry (those without UUI). A total of 1,518 patients were randomized across 215 study sites into one of three groups for a 12-week treatment period.
The study consisted of a Screening Period (1 to 5 weeks), a single-blind Run-in Period (2 weeks), a randomized double-blind Treatment Period (12 weeks), and a Follow-up Period (4 weeks).
Tolterodine ER 4 mg was the active control. […] Between the Baseline and Week 12 Visits, patients had study assessments at Week 4 and Week 8.
The Patient Voiding Diary was used by participants (via the eDiary or paper Diary) to record the frequency of daily OAB symptoms including all micturitions, urgency, incontinence, and main reason for incontinence by selecting the respective box for each symptom occurring during the course of a given day and night.
Urine volume data were collected separately by patients using the Urine Volume component of the eDiary, or the paper Urine Volume Chart. The Urine Volume Chart is a tool used in clinical practice and clinical investigation to assess voiding functions over a 24-hour period and is regarded as a useful instrument in the investigation of patients with voiding symptoms. Urine volume may be collected during any one (1) of the 7 Diary Days prior to the visit, and it should be recorded for ˜24 hours starting from the time the patient gets up for the day and continues until the time the patient gets up for the day on the next day.
For the purpose of this study, the number of micturitions was defined as the number of times a patient has voided in the toilet as indicated on the Patient Voiding Diary. Average daily micturitions were calculated using the daily entries in the Patient Voiding Diary, which was completed over the 7 days prior to each study visit. Average daily number of micturitions were calculated as the total number of micturitions that occurred on a Complete Diary Day divided by the number of Complete Diary Days in the Patient Voiding Diary. A complete diary day required confirmation by the patient in the Patient Voiding Diary that all voids and leakages had been recorded for the diary day. Baseline was defined as the average number of micturitions occurring during the last evaluable diary prior to the Baseline Visit.
The number of UUI episodes was defined as the number of times a patient had checked “urge” as the reason for accidental urine leakage. Average daily UUI episodes at each study visit were calculated in the same manner as described above for the micturition endpoint. The UUI endpoint were analyzed using only OAB Wet patients.
For the analysis of the co-primary endpoints (change from baseline in average number of daily micturitions at Week 12 and change from baseline in average number of daily urge urinary incontinence episodes at Week 12, and placebo adjustment of each), a mixed model for repeated measure (MMRM) with restricted maximum likelihood estimation was used. This model corrects for dropout and accounts for the fact that measurements taken on the same patient over time tend to be correlated by using all available information on patients within the same covariate set to derive an estimate of the treatment effect for a dropout-free population. The analysis model for each efficacy endpoint includes terms for treatment, visit, OAB Type (Wet vs Dry), Sex (Female vs Male), Region (US vs Rest of World), baseline score, and interaction of visit by treatment.
Primary inferences were drawn from treatment differences for the changes from baseline derived from the MMRM models at Week 12. As part of secondary objectives, the treatment differences for each post baseline visit were also derived using the same MMRM model. […]

[1] = No prior anticholinergic use during the prior 12 months
[2] = No prior mirabegron use during the prior 12 months
[3] = Overall, events of Events/Censored
[4] = Prior anticholinergic use during the prior 12 months
[5] = Prior mirabegron use during the prior 12 months
[6] = Week 2, events of Events/Censored
[7] = Week 4, events of Events/Censored

O=C(Nc1ccc(C[C@@H]2CC[C@H]([C@H](O)c3ccccc3)N2)cc1)[C@@H]1CCc2nccc(=O)n21 [Vibegron, (6S)-N-[4-[[(2S,5R)−5-[(R)-hydroxy(phenyl)methyl]pyrrolidin−2-yl]methyl]phenyl]−4-oxo−7,8-dihydro−6H-pyrrolo[1,2-a]pyrimidine−6-carboxamide]
Patients with at Least 50% Reduction in Urgency Episodes, Adjusted n (baseline to Week 4): 28
Patients with at Least 50% Reduction in Urgency Episodes, Unadjusted (%) (baseline to Week 4): 25.2%
Patients with at Least 50% Reduction in Urgency Episodes, Unadjusted n (baseline to Week 4): 31
Urgency 50% responders, Active - Placebo CMH Difference (baseline to Week 4): 5.4
Patients with at Least 50% Reduction in Urgency Episodes, Adjusted (%) (baseline to Week 8): 31.9%
Patients with at Least 50% Reduction in Urgency Episodes, Adjusted n (baseline to Week 8): 39
Patients with at Least 50% Reduction in Urgency Episodes, Unadjusted (%) (baseline to Week 8): 35.0%
Patients with at Least 50% Reduction in Urgency Episodes, Unadjusted n (baseline to Week 8): 43
Urgency 50% responders, Active - Placebo CMH Difference (baseline to Week 8): 12.4
Patients with at Least 50% Reduction in Urgency Episodes, Adjusted (%) (baseline to Week 12): 36.9%
Patients with at Least 50% Reduction in Urgency Episodes, Adjusted n (baseline to Week 12): 45
Patients with at Least 50% Reduction in Urgency Episodes, Unadjusted (%) (baseline to Week 12): 43.1%
Patients with at Least 50% Reduction in Urgency Episodes, Unadjusted n (baseline to Week 12): 53
Urgency 50% responders, Active - Placebo CMH Difference (baseline to Week 12): 13.9
Urgency Episodes, Week 12 CFB Mean (Males with BPH): −1.90
Urgency Episodes, Week 12 CFB Mean (Males without BPH): −2.56
Urgency Episodes, Week 12 CFB Mean (No Prior ACH Use in last 12 Mo.): −3.00
Urgency Episodes, Week 12 CFB Mean (No Prior B3 Agonist Use in last 12 Mo.): −2.94
Micturitions, 12-week change [1]: −2.1
UUI Episodes, 12-week change [1]: −2.1
Micturitions, 12-week change [2]: −2.0
UUI Episodes, 12-week change [2]: −2.0
Overall Time to First 50% Decrease in Urgency Episodes, 25th Percentile (Overall): 4.1 weeks
Overall Time to First 50% Decrease in Urgency Episodes, 50th Percentile (Overall): 12.3 weeks
Overall Time to First 50% Decrease in Urgency Episodes, Median (95% CI) (Overall): 12.3 (12.1 to 12.6) weeks
Overall Time to First 100% Decrease in UUI Episodes, 25th Percentile (Overall): 8.1, NE weeks
Overall Time to First 100% Decrease in UUI Episodes, Median (95% CI) (Overall): 13.3 (12.9 to NE) weeks
Urgency Episodes, Week 12 CFB Mean (Overall): −2.93
First 50% Decrease in Urgency Episodes, Events [3]: 256/270
First 100% Decrease in UUI Episodes, Events [3]: 146/257
Urgency Episodes, Week 12 CFB Mean (Prior ACH Use in last 12 Mo.): −2.50
Urgency Episodes, Week 12 CFB Mean (Prior B3 Agonist Use in last 12 Mo.): −2.56
Micturitions, 12-week change [4]: −1.97
UUI Episodes, 12-week change [4]: −1.46
Micturitions, 12-week change [5]: −2.83
UUI Episodes, 12-week change [5]: −1.64
Micturitions: LS Mean (95% CI) (Age <65 years): −0.2 (−0.6 to 0.2)
Micturitions: LS Mean (95% CI) (Age ≥65 years): −0.9 (−1.3 to −0.4)
Micturitions: LS Mean (95% CI) (Age ≥75 years (posthoc analysis)): −1.0 (−1.8 to −0.1)
Micturitions: LS Mean (95% CI) (Females): −0.5 (−0.8 to −0.2)
Micturitions: LS Mean (95% CI) (Males): −0.6 (−1.4 to 0.1)
Micturitions: LS Mean (95% CI) (Non-White): −0.5 (−1.2 to 0.1)
Micturitions: LS Mean (95% CI) (OAB Type: Dry): −0.7 (−1.4 to −0.1)
Micturitions: LS Mean (95% CI) (OAB Type: Wet): −0.5 (−0.8 to −0.1)
Micturitions: LS Mean (95% CI) (Overall): −0.5 (−0.8 to −0.2)
Micturitions: LS Mean (95% CI) (Region: Non-US): −0.4 (−1.4 to 0.5)
Micturitions: LS Mean (95% CI) (Region: US): −0.5 (−0.8 to −0.2)
Micturitions: LS Mean (95% CI) (White): −0.5 (−0.8 to −0.2)
Average Daily Number of Total Incontinence, Mean (SD) (Week 2): 2.53 (3.118)
Average daily number of urgency episodes, Mean (SD) (Week 2): 6.47 (4.458)
Average volume voided per micturition, Active - Placebo LS Mean Difference (Week 2): 11.9 mL
Change from Baseline in Average Daily Number of Total Incontinence, LS Mean (SE) (Week 2): −1.6 (0.14)
Change from baseline in average daily number of urgency episodes, LS Mean (Week 2): −1.5
Change from baseline in average volume voided per micturition, LS Mean (SE) (Week 2): 14.2 (3.02) mL
Estimated Incidence of Subjects with 50% Decrease from Baseline (urgency episodes) (Week 2): 19.6
Estimated Incidence of Subjects with 100% Decrease from Baseline (UUI episodes) (Week 2): 7.4
Total Incontinence, Active - Placebo LS Mean Difference (SE) (Week 2): −0.7 (0.14)
Urgency episodes, Active - Placebo LS Mean Difference (Week 2): −0.6
First 50% Reduction in Urgency Episodes, Events [6]: 103/423
First 100% Reduction in UUI Episodes, Events [6]: 30/373
Average volume voided per micturition, Week 2 Mean (SD) (Week 2, vibegron 75 mg, tolterodine ER 4 mg): 165.6 (74.26) mL
Average Daily Number of Total Incontinence, Mean (SD) (Week 4): 2.28 (3.239)
Average daily number of urgency episodes, Mean (SD) (Week 4): 6.02 (4.458)
Average volume voided per micturition, Active - Placebo LS Mean Difference (Week 4): 14.5 mL
Average volume voided per micturition, Week 4 Mean (SD) (Week 4): 172.6 (76.57) mL
Change from Baseline in Average Daily Number of Total Incontinence, LS Mean (SE) (Week 4): −1.9 (0.14)
Change from baseline in average daily number of urgency episodes, LS Mean (Week 4): −1.9
Change from baseline in average volume voided per micturition, LS Mean (SE) (Week 4): 18.9 (3.15) mL
Estimated Incidence of Subjects with 50% Decrease from Baseline (urgency episodes) (Week 4): 21.1
Estimated Incidence of Subjects with 100% Decrease from Baseline (UUI episodes) (Week 4): 9.2
Total Incontinence, Active - Placebo LS Mean Difference (SE) (Week 4): −0.8 (0.14)
Urgency episodes, Active - Placebo LS Mean Difference (Week 4): −0.8
First 50% Reduction in Urgency Episodes, Events [7]: 111/415
First 100% Reduction in UUI Episodes, Events [7]: 37/366
Average Daily Number of Total Incontinence, Mean (SD) (Week 8): 2.05 (3.245)
Average daily number of urgency episodes, Mean (SD) (Week 8): 5.58 (4.399)
Average volume voided per micturition, Active - Placebo LS Mean Difference (Week 8): 18.3 mL
Average volume voided per micturition, Week 8 Mean (SD) (Week 8): 173.4 (81.95) mL
Change from Baseline in Average Daily Number of Total Incontinence, LS Mean (SE) (Week 8): −2.1 (0.15)
Change from baseline in average daily number of urgency episodes, LS Mean (Week 8): −2.4
